Test results as given in patent US20250115739A1, “COMPOUND, RUBBER BLEND CONTAINING THE COMPOUND, VEHICLE TIRE COMPRISING THE RUBBER BLEND IN AT LEAST ONE COMPONENT, PROCESS FOR PREPARING THE COMPOUND, AND USE OF THE COMPOUND AS AN ANTI-AGING AGENT AND/OR ANTIOXIDANT” (Continental Reifen Deutschland GmbH, priority 2022, published 2025).

Experiment: Measurement of oxidation induction time (OIT) by DSC
Conditions: for Time [min] at 180° C. (time to oxidation, oxidation induction time): isothermal 180° C., O2 atmosphere 50 ml/min, with polyisoprene LIR-50, DSC peak
Protocol: The compound of formula III) was investigated under laboratory conditions for its potential protective effect as an aging stabilizer by measurement of the oxidation induction time.
To this end the compounds of formula III) and 6-PPD in each case together with a polymer (liquid synthetic polyisoprene (IR), LIR-50, Kuraray, weight average molecular weight distribution Mw=54 000 g/mol, glass transition temperature Tg=−63° C.) were heated at constant temperature (180° C.) until onset of oxidation (start temperature 35° C., heating to 170° C. at a heating rate of 20 K/min (kelvin per minute), heating to 180° C. at a heating rate of 1 K/min; purge gas: nitrogen (N2), volume flow 50 ml/min).
The specimen was kept under isothermal conditions at 180° C. under an N2 atmosphere for 5 minutes and the atmosphere was then switched to an 02 atmosphere (volume flow 50 ml/min).
Oxidation was determined via a peak using DSC (differential scanning calorimetry).
The time in minutes to oxidation was measured.

protective effect as aging stabilizer (from OIT) (taking into account measurement accuracy of 10 minutes)	Structure (SMILES)	Time [min] at 180° C. (time to oxidation, oxidation induction time)
	CC(C)CC(C)Nc1ccc(Nc2ccccc2)cc1 (stereo not drawn) [Substance 6PPD, N-(1,3-dimethylbutyl)-N′-phenyl-p-phenylenediamine, reference compound]	116 ± 10 min
protective effect comparable to 6PPD	CC1CCC2C(C1)Nc1ccc(Nc3ccccc3)cc1C2(C)C (stereo not drawn) [Formula III), 6,9,9-trimethyl-N-phenyl-5,6,7,8,8a,9,10,10a-octahydroacridin-2-amine]	93 ± 10 min
